From article PMC10074041 (RSC Advances, 2023)
In brackets after ≈: the same amount, converted by molar mass.

Target: α-glucosidase
Assay: pNPG hydrolysis, absorbance […] nm
Format: biochemical
Settings: 1.25 mM pNPG, phosphate pH 6.8, 35 min preincubation at room temperature

IC50 (μg mL^-1) / In vitro α-glucosidase inhibitory activity: 40.96 ± 0.96 µg/mL (≈ 183 µM)
Compound: CC(=O)NC(CC(=O)O)c1ccccc1O (stereo not shown) [L1, 3-Acetylamino-3(2-hydroxyphenyl) propanoic acid]
